{"source": "patent US20070128589A1", "about": "“Substrates, sensors, and methods for assessing conditions in females” (priority 2005, published 2007)", "key": {"[1]": {"test_system": "proteases produced by Trichomonas vaginalis", "test": "High throughput screening of GFP-random peptide fusion library with Trichomonas vaginalis cell-free growth medium", "format": "biochemical", "conditions": "4,900 clones screened, LYI entamoeba medium", "method": "Peptide substrates for proteases produced by the vaginal pathogen Trichomonas vaginalis were also identified. This microbe was grown in LYI entamoeba medium overnight and the cell-free growth medium was used in the high throughput screening of 4,900 clones from a GFP-random peptide fusion library.\nPeptides 39H9 and 42D3 were altered to remove the lysine residues prior to peptide synthesis. The peptides were conjugated to HRP and affigel 10 beads and produced a visible color signal in five minutes at 650 nm when an aliquot of the protease-treated product was incubated with tetramethyl benzidine."}, "[2]": {"target": "HSV protein UL26 (Human herpesvirus 1, UniProt P10210)", "sequence (P10210 whole entry)": "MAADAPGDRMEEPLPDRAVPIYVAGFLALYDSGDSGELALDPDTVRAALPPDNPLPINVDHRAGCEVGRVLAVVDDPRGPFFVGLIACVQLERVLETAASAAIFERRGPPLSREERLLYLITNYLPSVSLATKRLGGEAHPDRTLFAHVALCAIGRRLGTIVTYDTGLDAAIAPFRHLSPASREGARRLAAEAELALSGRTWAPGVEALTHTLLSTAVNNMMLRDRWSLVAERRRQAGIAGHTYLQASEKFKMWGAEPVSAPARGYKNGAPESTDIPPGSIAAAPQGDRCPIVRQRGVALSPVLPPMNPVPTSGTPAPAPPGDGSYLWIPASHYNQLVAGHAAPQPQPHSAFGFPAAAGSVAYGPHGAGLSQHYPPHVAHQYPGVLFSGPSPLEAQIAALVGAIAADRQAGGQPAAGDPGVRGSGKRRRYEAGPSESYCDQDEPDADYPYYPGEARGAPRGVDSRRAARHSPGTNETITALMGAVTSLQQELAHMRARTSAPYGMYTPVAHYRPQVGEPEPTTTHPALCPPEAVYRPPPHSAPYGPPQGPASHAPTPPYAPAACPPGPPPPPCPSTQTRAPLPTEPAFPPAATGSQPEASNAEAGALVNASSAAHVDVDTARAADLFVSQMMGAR", "conditions": "cited from earlier work"}, "[3]": {"test_system": "C. albicans", "test": "Identification of peptide targets for C. albicans", "format": "biochemical, Candida albicans", "method": "Clones of green fluorescent protein (GFP) tagged conjugates were used to identify targets in a high throughput screen. Each clone contained a plasmid harboring a gene that contains a polyhistidine tag (6 his), 30 random nucleotides (corresponding to 10 random amino acids), and green fluorescent protein (GFP). On the day before a screen, 864 glowing clones are grown up overnight at 37° C. in deep well microtiter plates (1 ml/well). In the morning, the cultures can be induced with 1 mM IPTG for 1 hour, the cells can be centrifuged for five minutes, and then the media can be decanted. Lysozyme (2 mg/ml) can be added and the cells can be flash frozen 3 times. The samples can be treated with 100 ul/well of DNAse I at 37° C. for 30 minutes to reduce the viscosity by digesting the DNA. An aliquot of the sample can then be transferred to a microtiter filter plate containing 10 μl of nickel-NTA resin. The pipeting of the reagents (IPTG, lysozyme, DNAse I, and beads) can be performed with a Tecan Genesis RSP 100 Robot with Gemini version 4.0 software.\n(§1) The plates can be filtered by centrifugation three times with PBS to remove unbound material and then the GFP-peptide-bound bead can be incubated with microbial extract for 20 min at 37° C. The sample can be filtered and the flow through fluorescence can be compared with the background from the prior wash. If the microbe has a protease that finds the ideal target, then the release of GFP fluorescence from the bead can be over 100 times greater than the background.\n(SEQ ID NO: 8), the sequence QKTTIKKLKH (H2) (SEQ ID NO: 9), the sequence KPKAFLKVGN (R8) (SEQ ID NO: 6), the sequence TPIQIHTILH (SEQ ID NO: 10), the sequence […] (SEQ ID NO: 11), the sequence […] (SEQ ID NO: 12), and the sequence […] (SEQ ID NO: 13)."}, "[4]": {"test_system": "C. albicans clinical isolates", "conditions": "for reaction with ten clinical C. albicans isolates (released HRP): HRP-peptide-Affigel conjugate, cell-free growth medium, ten minutes, FIG. 24; for sensitivity: all ten clinical isolates", "method": "For example, ten clinical C. albicans isolates kindly provided by Dr. Andrew Onderdonk (Brigham and Women's Hospital) were tested alongside a strain obtained from C. albicans ATCC. The yeast cells were grown in YCB-BSA (23.4 g yeast carbon base, 2 g yeast extract, 10 g dextrose, and 5 g of BSA per liter—adjusted to pH 5.0). An aliquot of the cell-free growth medium was mixed with an HRP-peptide-Affigel conjugate for ten minutes and the amount of released HRP was determined."}, "[5]": {"test_system": "Gardnerella vaginalis, Lactobacillus acidophilus, and Escherichia coli", "test": "HRP-peptide-Affigel conjugates: initial specificity study with other vaginal bacteria", "format": "biochemical"}, "[6]": {"test_system": "Candida albicans", "method": "For example, in one embodiment, the H2 peptide was conjugated to Blue dye #1 as a reporter on the C-terminal end. The N-terminal end was conjugated to Affigel 10 beads (BioRad). The beads were exposed to an aliquot of overnight grown Candida albicans for a period of 24 hours at 37° C. A control set of beads was also exposed to culture medium. Blue dye released from the beads by the action of Candida albicans was collected on a membrane to produce a clear signal.\nFood grade sensors can be used in consumer products. […] The resulting beads were incubated with growth medium (1:2 BHI/PBS) alone (control) and an overnight grow-up of Candida albicans for 24 hours at 37° C. […] The preferred ion exchange membranes to collect the free dye are SB6407 and Biodyne B (Pall Life Sciences, Ann Arbor, Mich. and positively charged PVDF (Millipore)). These membranes have strong positively-charged quaternary ammonium groups.\nIn one example, dye-conjugated Affigel 10 beads were exposed to Candida albicans supernatant (20 μl of 1:10 dilution of beads) or a medium control (1:2 BHI/PBS) for 24 hours. The color was collected with a positively charged membrane (SB6407) in with the bead reaction."}, "[7]": {"test_system": "Lactobacillus sp. protease", "test": "GFP-random amino acid sequence-polyhistidine peptide library screen, GFP-peptide released from beads by Lactobacillus supernatant", "format": "biochemical, Lactobacillus acidophilus", "conditions": "plate number 69, exposed to Lactobacillus, FIG. 9", "method": "(§2) The samples were then incubated with beads that bind the epitope tag (e.g., 10 μl of NTA-resin to bind a polyhistidine tag or 10 μl of methotrexate agarose to bind the FolA tag). The sample was then placed into a microtiter filtration plate and washed three times to remove the unbound proteins. The fluorescent signal of the third wash was measured in a fluorescent microplate reader at an excitation of 355 nm and an emission of 510 nm (for GFP). Alternatively, the HRP activity can be measured in a microplate colorimeter at 405 nm with H2O2 and ABTS substrate. This background reading from the third rinse can later be subtracted from the signal of the released GFP (or HRP) peptides by extracellular bacterial proteases. […]\nas §1\n(§3) Fluorescence can be measured on a Fluoroskan II instrument with an excitation filter centered at 380 nm and emission filter centered at 538 nm. […]"}, "[8]": {"test_system": "Gardnerella vaginalis", "test": "GFP-random amino acid sequence-polyhistidine peptide library screen with Gardnerella extracts", "format": "biochemical", "conditions": "plate 76, FIG. 10", "method": "as §2, §1, §3"}}, "note": "No end group written: not given here.", "data": [{"substance": "NNPLPKIQKN (Peptide Substrate of Trichomonas vaginalis) [38H9/T7, peptide detecting Trichomonas vaginalis]", "values": [{"measurement": "identified as peptide detecting Trichomonas vaginalis", "setting": "[1]", "result": "detect Trichomonas vaginalis"}]}, {"substance": "LHNYVLLRNIL (Peptide Substrate of Trichomonas vaginalis) [38H8/T7, peptide detecting Trichomonas vaginalis]", "values": [{"measurement": "identified as peptide detecting Trichomonas vaginalis", "setting": "[1]", "result": "detect Trichomonas vaginalis"}]}, {"substance": "ASNAEAGALVNASSAAHVDV", "values": [{"measurement": "cleavage site", "setting": "[2]", "result": "between the 12th amino acid (alanine) and the 13th amino acid (serine)"}, {"measurement": "specificity of UL26 for the sequence", "setting": "[2]", "result": "strong specificity"}]}, {"substance": "QKTTIKKLKH (also: HRP or Blue dye #1 Affigel conjugate) [H2]", "values": [{"measurement": "identified as peptide target for C. albicans", "setting": "[3]", "result": "peptide targets for C. albicans"}, {"measurement": "reaction with ten clinical C. albicans isolates (released HRP)", "setting": "[4]", "result": "reacted strongly"}, {"measurement": "sensitivity", "setting": "[4]", "result": 100, "unit": "%"}, {"measurement": "clipping by other vaginal bacteria", "setting": "[5]", "result": "not significantly clipped"}, {"measurement": "blue dye released from beads / peptide hydrolysis, color collected on membrane", "setting": "[6]; overnight grown Candida albicans, 24 hours at 37° C., no signal from control medium", "result": "highly visible blue color"}]}, {"substance": "69/B8 (PFINETYAKFC; Peptide Substrate of Gardnerella vaginalis)", "values": [{"measurement": "signal strength (GFP-peptide released from the beads)", "setting": "[7]", "result": 62.8}]}, {"substance": "NITKKSTKII (Peptide Substrate of Candida spp.) [peptide target for C. albicans]", "values": [{"measurement": "identified as peptide target for C. albicans", "setting": "[3]", "result": "peptide targets for C. albicans"}]}, {"substance": "SKQQDIIKKY (Peptide Substrate of Trichomonas vaginalis) [44E6/T7, peptide detecting Trichomonas vaginalis]", "values": [{"measurement": "identified as peptide detecting Trichomonas vaginalis", "setting": "[1]", "result": "detect Trichomonas vaginalis"}]}, {"substance": "KPKAFLKVGN (also: histidine tag) [R8, C. albicans peptide; used as H2N-…-OH with histidine tag for immobilization]", "values": [{"measurement": "identified as peptide target for C. albicans", "setting": "[3]", "result": "peptide targets for C. albicans"}, {"measurement": "reaction with ten clinical C. albicans isolates (released HRP)", "setting": "[4]", "result": "reacted strongly"}, {"measurement": "sensitivity", "setting": "[4]", "result": 100, "unit": "%"}, {"measurement": "clipping by other vaginal bacteria", "setting": "[5]", "result": "not significantly clipped"}]}, {"substance": "KPSIKPTPPY (Peptide Substrate of Candida spp.) [peptide target for C. albicans]", "values": [{"measurement": "identified as peptide target for C. albicans", "setting": "[3]", "result": "peptide targets for C. albicans"}]}, {"substance": "KNPKLQDHYI (Peptide Substrate of Trichomonas vaginalis) [44B5/T7, peptide detecting Trichomonas vaginalis]", "values": [{"measurement": "identified as peptide detecting Trichomonas vaginalis", "setting": "[1]", "result": "detect Trichomonas vaginalis"}]}, {"substance": "QINKALKQPK (Peptide Substrate of Trichomonas vaginalis) [41El 1/T7, peptide detecting Trichomonas vaginalis]", "values": [{"measurement": "identified as peptide detecting Trichomonas vaginalis", "setting": "[1]", "result": "detect Trichomonas vaginalis"}]}, {"substance": "76/C3 (ITTTSSKHEHC; Peptide Substrate of Lactobacillus acidophilus)", "values": [{"measurement": "fluorescence after exposure to Gardnerella extracts", "setting": "[8]", "result": "strong fluorescence"}]}, {"substance": "INLSKKQIYP (Peptide Substrate of Candida spp.) [peptide target for C. albicans]", "values": [{"measurement": "identified as peptide target for C. albicans", "setting": "[3]", "result": "peptide targets for C. albicans"}]}, {"substance": "QIPKSLHPIT (Peptide Substrate of Trichomonas vaginalis) [42D3/T7, peptide detecting Trichomonas vaginalis]", "values": [{"measurement": "identified as peptide detecting Trichomonas vaginalis", "setting": "[1]", "result": "detect Trichomonas vaginalis"}]}, {"substance": "QRTTIRRLRH [modified H2 peptide]", "values": [{"measurement": "time to visible blue dye release", "setting": "[6]; collection of color in a feminine pad", "result": "approximately 3 hours"}]}, {"substance": "NKTNKTKHAY (Peptide Substrate of Trichomonas vaginalis) [42H8/T7, peptide detecting Trichomonas vaginalis]", "values": [{"measurement": "identified as peptide detecting Trichomonas vaginalis", "setting": "[1]", "result": "detect Trichomonas vaginalis"}]}, {"substance": "LYPSQNPVIK (Peptide Substrate of Candida spp.) [peptide target for C. albicans]", "values": [{"measurement": "identified as peptide target for C. albicans", "setting": "[3]", "result": "peptide targets for C. albicans"}]}]}
